Measured values taken from US20240376154A1, “BIS-INTERCALATING PEPTIDES, CONJUGATES AND METHODS OF USE” (ZYMEWORKS BC INC., priority 2023, published 2024).

Settings: amide bond; 32-membered ring

In order of rising ring closure, isolated yield:
1. Benzyl tert-butyl ((7R,11S,19aS,26R,30S,38aS)-11-isopropyl-12,15,31,34-tetramethyl-6,10,13,16,19,25,29,32,35,38-decaoxo-30-phenylhexatriacontahydro-2H,6H-dipyrido[1,2-a:1′,2′-q][1,4,7,10,13,17,20,23,26,29]decaazacyclodotriacontine-7,26-diyl)dicarbamate  26%
2. di-tert-butyl ((7R,11S,19aS,26R,30S,38aS)-11,30-diisopropyl-12,15,31,34-tetramethyl-6,10,13,16,19,25,29,32,35,38-decaoxohexatriacontahydro-2H,6H-dipyrido[1,2-a:1′,2′-q][1,4,7,10,13,17,20,23,26,29]decaazacyclodotriacontine-7,26-diyl)dicarbamate  34%
3. Benzyl tert-butyl ((7R,19aS,26R,30S,38aS)-30-isopropyl-11,11,12,15,31,34-hexamethyl-6,10,13,16,19,25,29,32,35,38-decaoxohexatriacontahydro-2H,6H-dipyrido[1,2-a:1′,2′-q][1,4,7,10,13,17,20,23,26,29]decaazacyclodotriacontine-7,26-diyl)dicarbamate  37%
4. Benzyl tert-butyl ((7R,11S,19aS,26R,30S,38aS)-12,31-diethyl-11,30-diisopropyl-15,34-dimethyl-6,10,13,16,19,25,29,32,35,38-decaoxohexatriacontahydro-2H,6H-dipyrido[1,2-a:1′,2′-q][1,4,7,10,13,17,20,23,26,29]decaazacyclodotriacontine-7,26-diyl)dicarbamate  40%
5. Benzyl tert-butyl ((7′R,19a'S,26′R,30'S,38a'S)-30′-isopropyl-12′,15′,31′,34′-tetramethyl-6′,10′,13′,16′,19′,25′,29′,32′,35′,38′-decaoxotetratriacontahydro-2′H,6′H,12′H-spiro[cyclobutane-1,11′-dipyrido[1,2-a:1′,2′-q][1,4,7,10,13,17,20,23,26,29]decaazacyclodotriacontine]-7′,26′-diyl)dicarbamate  43%
6. Benzyl tert-butyl ((7′R,19a'S,26′R,30'S,38a'S)-30′-isopropyl-12′,15′,31′,34′-tetramethyl-6′,10′,13′,16′,19′,25′,29′,32′,35′,38′-decaoxotetratriacontahydro-2′H,6′H,12′H-spiro[cyclopropane-1,11′-dipyrido[1,2-a:1′,2′-q][1,4,7,10,13,17,20,23,26,29]decaazacyclodotriacontine]-7′,26′-diyl)dicarbamate  48%
7. Di-tert-butyl ((7R,8R,11S,19aS,26R,27R,30S,38aS)-11,30-diisopropyl-8,12,15,27,31,34-hexamethyl-6,10,13,16,19,25,29,32,35,38-decaoxodotriacontahydro-2H,6H,10H,25H-dipyrido[2,1-b1: 2′,1′-l][1,17]dioxa[4,7,10,13,20,23,26,29]octaazacyclodotriacontine-7,26-diyl)dicarbamate  50%
8. Tert-butyl (4-nitrobenzyl) ((7R,11S,19aS,26R,30S,38aS)-11,30-diisopropyl-12,15,31,34-tetramethyl-6,10,13,16,19,25,32,35,38-nonaoxodotriacontahydro-2H,6H,10H,25H-dipyrido[2,1-b1: 2′,1′-l][1,17]dioxa[4,7,10,13,20,23,26,29]octaazacyclodotriacontine-7,26-diyl)dicarbamate  50%
9. Benzyl tert-butyl ((7R,11S,19aS,26R,30S,38aS)-11,30-diisopropyl-12,31-dimethyl-6,10,13,16,19,25,29,32,35,38-decaoxohexatriacontahydro-2H,6H-dipyrido[1,2-a:1′,2′-q][1,4,7,10,13,17,20,23,26,29]decaazacyclodotriacontine-7,26-diyl)dicarbamate  53%
10. Benzyl tert-butyl ((13S,16R,19aS,32S,35R,38aS)-13,32-diisopropyl-8,14,27,33-tetramethyl-6,9,12,15,19,25,28,31,34,38-decaoxohexatriacontahydro-2H,6H-dipyrido[2,1-c: 2′,1′-s][1,4,7,10,13,17,20,23,26,29]decaazacyclodotriacontine-16,35-diyl)dicarbamate  57%
11. Benzyl tert-butyl ((7R,11S,19aS,26R,30S,38aS)-11,30-diisopropyl-12,31-dimethyl-6,10,13,19,25,29,32,38-octaoxodotriacontahydro-2H,6H,16H,25H-dipyrido[1,2-a1:1′,2′-k][1,17]dioxa[4,7,11,14,20,23,27,30]octaazacyclodotriacontine-7,26-diyl)dicarbamate  58%
12. Benzyl tert-butyl ((7R,11S,19aS,26R,30S,38aS)-11-cyclohexyl-30-isopropyl-12,15,31,34-tetramethyl-6,10,13,16,19,25,29,32,35,38-decaoxohexatriacontahydro-2H,6H-dipyrido[1,2-a:1′,2′-q][1,4,7,10,13,17,20,23,26,29]decaazacyclodotriacontine-7,26-diyl)dicarbamate  58%
13. Benzyl tert-butyl ((7R,11S,19aS,26R,30S,38aS)-11,30-diisopropyl-12,15,31,34-tetramethyl-6,10,13,16,19,25,29,32,35,38-decaoxotetratriacontahydro-2H,6H,10H-dipyrido[2,1-b1: 2′,1′-l][1]oxa[4,7,10,13,17,20,23,26,29]nonaazacyclodotriacontine-7,26-diyl)dicarbamate  63%
14. Di-tert-butyl ((7R,11S,19aS,26R,30S,38aS)-11,30-diisopropyl-9,12,15,28,31,34-hexamethyl-6,10,13,16,19,25,29,32,35,38-decaoxohexatriacontahydro-2H,6H-dipyrido[1,2-a:1′,2′-q][1,4,7,10,13,17,20,23,26,29]decaazacyclodotriacontine-7,26-diyl)dicarbamate  65%
15. Benzyl tert-butyl ((7R,11S,19aS,26R,30S,38aS)-15,34-diethyl-11,30-diisopropyl-12,31-dimethyl-6,10,13,16,19,25,29,32,35,38-decaoxohexatriacontahydro-2H,6H-dipyrido[1,2-a:1′,2′-q][1,4,7,10,13,17,20,23,26,29]decaazacyclodotriacontine-7,26-diyl)dicarbamate  68%
16. Bis(4-nitrobenzyl) ((7R,11S,19aS,26R,30S,38aS)-11,30-diisopropyl-12,15,31,34-tetramethyl-6,13,16,19,25,32,35,38-octaoxodotriacontahydro-2H,6H,10H,25H-dipyrido[2,1-b1: 2′,1′-l][1,17]dioxa[4,7,10,13,20,23,26,29]octaazacyclodotriacontine-7,26-diyl)dicarbamate  68%
17. Tert-butyl (4-nitrobenzyl) ((7R,11S,19aS,26R,30S,38aS)-11,30-diisopropyl-12,15,31,34-tetramethyl-6,13,16,19,25,29,32,35,38-nonaoxotetratriacontahydro-2H,6H,10H-dipyrido[2,1-b1: 2′,1′-l][1]oxa[4,7,10,13,17,20,23,26,29]nonaazacyclodotriacontine-7,26-diyl)dicarbamate  68%
18. Tert-butyl (4-nitrobenzyl) ((7R,11R,19aS,26R,30S,38aS)-11-((S)-sec-butyl)-30-isopropyl-12,15,31,34-tetramethyl-6,13,16,19,25,29,32,35,38-nonaoxotetratriacontahydro-2H,6H,10H-dipyrido[2,1-b1: 2′,1′-l][1]oxa[4,7,10,13,17,20,23,26,29]nonaazacyclodotriacontine-7,26-diyl)dicarbamate  72%
19. Benzyl tert-butyl ((7R,11S,19aS,26R,30S,38aS)-11-((S)-sec-butyl)-30-isopropyl-12,15,31,34-tetramethyl-6,10,13,16,19,25,29,32,35,38-decaoxohexatriacontahydro-2H,6H-dipyrido[1,2-a:1′,2′-q][1,4,7,10,13,17,20,23,26,29]decaazacyclodotriacontine-7,26-diyl)dicarbamate  75%
20. Benzyl tert-butyl ((7R,11S,19aS,26R,30S,38aS)-11,30-diisopropyl-12,31-dimethyl-6,10,13,16,19,25,29,32,35,38-decaoxo-15,34-dipropylhexatriacontahydro-2H,6H-dipyrido[1,2-a:1′,2′-q][1,4,7,10,13,17,20,23,26,29]decaazacyclodotriacontine-7,26-diyl)dicarbamate  85%
21. Di-tert-butyl ((7R,11S,19aS,26R,30S,38aS)-11,30-diisopropyl-12,15,31,34-tetramethyl-6,10,13,16,19,25,29,32,35,38-decaoxotetratriacontahydro-2H,6H,10H-dipyrido[2,1-b1: 2′,1′-l][1]oxa[4,7,10,13,17,20,23,26,29]nonaazacyclodotriacontine-7,26-diyl)dicarbamate  86%
22. Dibenzyl ((7R,11S,19aS,26R,30S,38aS)-11-((R)-1-(tert-butoxy)ethyl)-30-isopropyl-12,15,31,34-tetramethyl-6,10,13,16,19,25,29,32,35,38-decaoxohexatriacontahydro-2H,6H-dipyrido[1,2-a:1′,2′-q][1,4,7,10,13,17,20,23,26,29]decaazacyclodotriacontine-7,26-diyl)dicarbamate  91%
